This assay has as its system K562 human leukemia cell line. The assay can be described thus: K562 Cell Proliferation Assay (MTS). The format is cell-based. The following applies: K562 cells, 48 hr incubation, MTS cell viability. Here is the method: K562 human leukemia cell line purchased from Korean cell line bank (KCLB) and were cultured in Roswell Park Memorial Institute (RPMI) 1640 Medium supplemented with 10% fetal bovine serum (FBS) and 1% penicillin-streptomycin in a humidified incubator in an atmosphere of 5% CO2 at 37° C. Cells were seeded in 96-well plates at a density of 2×10^3 cells/well in 100 […] media. Compounds were diluted as two times concentration in 100 μl of media and added to each well. Compounds were 5-fold serially diluted for 6 points and treated from 5 μM to 1.6 nM in K562 cells. After 48 hr incubation, Compound treated cells were analyzed for anti-proliferation assay. Cell viability was investigated using the Cell Titer 96 Aqueous One Solution Reagent. Briefly, 200 μl of media were supplemented with 40 μl of MTS solution, incubated for 4hr, and then the absorbance was recorded at 490 nm with a 96-well plate reader. G150 values were calculated from a series of percent of cell viability at a range of compound concentration. GraphPad Prism 8 software or SigmaPlot 13.0 was used to generate G150 values.
One may read the IC50 as the midpoint of a concentration-inhibition curve. A lower IC50 goes with inhibition by little substance. Molecule `Cc1c(F)cccc1-c1ccc2nc(NC(=O)[C@@H]3C[C@@H]3F)cn2c1` [Example 1, (1 S,2 S)-2-fluoro-N-(6-(3-fluoro-2-methylphenyl)imidazo[1,2-a]pyridin-2-yl)cyclopropane-1-carboxamide] registered an IC50 of 101 to 1000 nM.
With `Cc1ccc(F)cc1-c1ccc2nc(NC(=O)[C@@H]3C[C@@H]3F)cn2c1` [Example 11, (1 S,2 S)-2-fluoro-N-(6-(5-fluoro-2-methylphenyl)imidazo[1,2-a]pyridin-2-yl)cyclopropane-1-carboxamide], the IC50 fell in the range of 101 to 1000 nM.
Turning to `Cc1ccc(O)cc1-c1ccc2nc(NC(=O)[C@@H]3C[C@@H]3F)cn2c1` [Example 12, (1 S,2 S)-2-fluoro-N-(6-(5-hydroxy-2-methylphenyl)imidazo[1,2-a]pyridin-2-yl)cyclopropane-1-carboxamide], the IC50 was 10 to 100 nM.
The molecule `Cc1ccc2[nH]ccc2c1-c1ccc2nc(NC(=O)[C@@H]3C[C@@H]3F)cn2c1` [Example 15, (1 S,2 S)-2-fluoro-N-(6-(5-methyl-1H-indol-4-yl)imidazo[1,2-a]pyridin-2-yl)cyclopropane-1-carboxamide] registered an IC50 of 10 to 100 nM.
For `CNc1ccc(C)c(-c2ccc3nc(NC(=O)[C@@H]4C[C@@H]4F)cn3c2)c1` [Example 24, (1 S,2 S)-2-fluoro-N-(6-(2-methyl-5-(methylamino)phenyl)imidazo[1,2-a]pyridin-2-yl)cyclopropane-1-carboxamide] the value was 10 to 100 nM.
With `Cc1ccc(-c2cc[nH]c2)cc1-c1ccc2nc(NC(=O)[C@@H]3C[C@@H]3F)cn2c1` [Example 40, (1 S,2 S)-2-fluoro-N-(6-(2-methyl-5-(1H-pyrrol-3-yl)phenyl)imidazo[1,2-a]pyridin-2-yl)cyclopropane-1-carboxamide], the IC50 fell in the range of 10 to 100 nM.
For `Cc1c(F)cccc1-c1ccc2nc(NC(=O)C3CC3)cn2c1` [Example 70, N-(6-(3-fluoro-2-methylphenyl)imidazo[1,2-a]pyridin-2-yl)cyclopropanecarboxamide] the value was 101 to 1000 nM; for `Cc1c(F)cccc1-c1ccc2nc(NC(=O)C3CC3(F)F)cn2c1` (stereo not drawn) [Example 77, 2,2-difluoro-N-(6-(3-fluoro-2-methylphenyl)imidazo[1,2-a]pyridin-2-yl)cyclopropanecarboxamide], 101 to 1000 nM.
Consider `O=C(Nc1cn2cc(-c3cnc4[nH]ccc4c3)ccc2n1)[C@@H]1C[C@@H]1F` [Example 85, (1 S,2 S)-N-(6-(1H-pyrrolo[2,3-b]pyridin-5-yl)imidazo[1,2-a]pyridin-2-yl)-2-fluorocyclopropanecarboxamide], for which the IC50 was in the range of 101 to 1000 nM.
Consider `Cc1cc2[nH]ccc2cc1-c1ccc2nc(NC(=O)[C@@H]3C[C@@H]3F)cn2c1` [Example 92, (1 S,2 S)-2-fluoro-N-(6-(6-methyl-1H-indol-5-yl)imidazo[1,2-a]pyridin-2-yl)cyclopropanecarboxamide], for which the IC50 was in the range of 10 to 100 nM.
With `Cc1cc2nc[nH]c2cc1-c1ccc2nc(NC(=O)[C@@H]3C[C@@H]3F)cn2c1` [Example 94, (1 S,2 S)-2-fluoro-N-(6-(5-methyl-1H-benzo[d]imidazol-6-yl)imidazo[1,2-a]pyridin-2-yl)cyclopropanecarboxamide] the figure was 101 to 1000 nM.
As for `Cc1cc2ncsc2cc1-c1ccc2nc(NC(=O)[C@@H]3C[C@@H]3F)cn2c1` [Example 103, (1 S,2 S)-2-fluoro-N-(6-(5-methylbenzo[d]thiazol-6-yl)imidazo[1,2-a]pyridin-2-yl)cyclopropanecarboxamide], the IC50 was in the range of 10 to 100 nM.

For the origin of these results see patent US20220242861A1, “IMIDAZOPYRIDINYL COMPOUNDS AND USE THEREOF FOR TREATMENT OF PROLIFERATIVE DISORDERS” (1ST Biotherapeutics, Inc., priority 2019, published 2022).
